This note sets out measurements from US9242993B2, “Morpholino substituted bicyclic pyrimidine urea or carbamate derivatives as mTOR inhibitors” (CELLZOME LIMITED, priority 2011, dated 2016).

Assay [1] has as its system S6RP serine-240/244 phosphorylation. Kind of assay: In vitro phospho-S6 cellular assay. It counts as cell-based. The conditions noted are these: Homo sapiens; HEK293T/17 cells, 2 hours; read-out: pS6 inhibition value (IC50), activity level. An outline of the steps:
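HEK293T/17 cells (40,000/well for pS6RP, 80,000/well for pAkt) in DMEM, 2% FCS treated 2 h at 37 °C with 8 compound concentrations (0.1% DMSO). Lysates assayed by MesoScale sandwich electrochemiluminescence for pS6RP Ser240/244 or pAkt Ser473. Curves fitted by sigmoidal variable-slope regression.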

The subject of assay [2] is IFNγ release in whole blood. Kind of assay: In vitro human whole blood assay (IFNγ release). The assay is classed as cell-based. To be noted: αCD3/αCD28 and IL-2 stimulation, 18 hours, read-out: WB inhibition value (pIC50) (converted). As to the method:
This assay measures IFNγ release in whole blood after αCD3/αCD28 and IL-2 treatment. The whole blood contains circulating T lymphocytes; αCD3/αCD28 stimulation mimics antigen receptor signalling, resulting in epigenetic changes to the IFNG gene locus, such that when IL-2 is added, IFNγ is produced.
Human whole blood, with Na-heparin as the anticoagulant, is obtained from Clinical Trials Laboratory Services. Blood is diluted 1.4 times with RPMI 1640 (Lonza, BE12-167F) and 175 μl/well is distributed in a low evaporation 96-well plates (Falcon, BD Labware, 353072). Blood is treated with 10 concentrations of test compounds or DMSO alone for controls (final DMSO concentration 0.2%) and incubated at 37° C. for 1 hour. Blood is then stimulated with 1 μg/ml αCD3 (R&D Systems, MAB100), 1 μg/ml αCD28 (BD Pharmingen, 555725) and IL-2 at 10 ng/ml (Peprotech, 200-02). Blood is then left to incubate at 37° C. for 18 hours. After, plates are spun at 250 g for 5 minutes to pellet blood cells and 25 μl of plasma is transferred to a MesoScale plate coated with an antibody to IFNγ (MesoScale Discovery K151AEC-2) containing 25 μl/well MesoScale Discovery Blocking Solution-2. Plates have been blocked by incubating with 25 μl/well MesoScale Discovery Blocking Solution-2 for 30 minutes at room temperature. After the transfer of sera to the MSD plate, the IFNγ protein is captured on the coated antibody by incubation at room temperature for 2 hour with gentle shaking. After the capture step the plate is washed three times with 150 μl/well of 1×PBS-Tween wash buffer and 25 μl/well detection antibody conjugated with a Sulfo-Tag is added and incubated for 2 hours at room temperature with gentle shaking. Subsequently the antibody solution is removed and the plate is washed 3 times with 150 μl/well 1×PBS-Tween wash buffer and 150 μl/well MesoScale Discovery Read buffer is added. The plates are analysed on a MSD 2400 Plate Reader (MesoScale Discovery). Data analysis is performed using nonlinear regression for a sigmoidal dose-response with a variable slope.

The target in assay [3] is mTOR (Homo sapiens, UniProt P42345). Kind of assay: biochemical.
Assay [4] concerns the target DNA-dependent protein kinase (DNA-PK) (Homo sapiens, UniProt P78527). The experiment in a line: biochemical.

DNA-dependent protein kinase (DNA-PK), sequence (P78527 whole entry): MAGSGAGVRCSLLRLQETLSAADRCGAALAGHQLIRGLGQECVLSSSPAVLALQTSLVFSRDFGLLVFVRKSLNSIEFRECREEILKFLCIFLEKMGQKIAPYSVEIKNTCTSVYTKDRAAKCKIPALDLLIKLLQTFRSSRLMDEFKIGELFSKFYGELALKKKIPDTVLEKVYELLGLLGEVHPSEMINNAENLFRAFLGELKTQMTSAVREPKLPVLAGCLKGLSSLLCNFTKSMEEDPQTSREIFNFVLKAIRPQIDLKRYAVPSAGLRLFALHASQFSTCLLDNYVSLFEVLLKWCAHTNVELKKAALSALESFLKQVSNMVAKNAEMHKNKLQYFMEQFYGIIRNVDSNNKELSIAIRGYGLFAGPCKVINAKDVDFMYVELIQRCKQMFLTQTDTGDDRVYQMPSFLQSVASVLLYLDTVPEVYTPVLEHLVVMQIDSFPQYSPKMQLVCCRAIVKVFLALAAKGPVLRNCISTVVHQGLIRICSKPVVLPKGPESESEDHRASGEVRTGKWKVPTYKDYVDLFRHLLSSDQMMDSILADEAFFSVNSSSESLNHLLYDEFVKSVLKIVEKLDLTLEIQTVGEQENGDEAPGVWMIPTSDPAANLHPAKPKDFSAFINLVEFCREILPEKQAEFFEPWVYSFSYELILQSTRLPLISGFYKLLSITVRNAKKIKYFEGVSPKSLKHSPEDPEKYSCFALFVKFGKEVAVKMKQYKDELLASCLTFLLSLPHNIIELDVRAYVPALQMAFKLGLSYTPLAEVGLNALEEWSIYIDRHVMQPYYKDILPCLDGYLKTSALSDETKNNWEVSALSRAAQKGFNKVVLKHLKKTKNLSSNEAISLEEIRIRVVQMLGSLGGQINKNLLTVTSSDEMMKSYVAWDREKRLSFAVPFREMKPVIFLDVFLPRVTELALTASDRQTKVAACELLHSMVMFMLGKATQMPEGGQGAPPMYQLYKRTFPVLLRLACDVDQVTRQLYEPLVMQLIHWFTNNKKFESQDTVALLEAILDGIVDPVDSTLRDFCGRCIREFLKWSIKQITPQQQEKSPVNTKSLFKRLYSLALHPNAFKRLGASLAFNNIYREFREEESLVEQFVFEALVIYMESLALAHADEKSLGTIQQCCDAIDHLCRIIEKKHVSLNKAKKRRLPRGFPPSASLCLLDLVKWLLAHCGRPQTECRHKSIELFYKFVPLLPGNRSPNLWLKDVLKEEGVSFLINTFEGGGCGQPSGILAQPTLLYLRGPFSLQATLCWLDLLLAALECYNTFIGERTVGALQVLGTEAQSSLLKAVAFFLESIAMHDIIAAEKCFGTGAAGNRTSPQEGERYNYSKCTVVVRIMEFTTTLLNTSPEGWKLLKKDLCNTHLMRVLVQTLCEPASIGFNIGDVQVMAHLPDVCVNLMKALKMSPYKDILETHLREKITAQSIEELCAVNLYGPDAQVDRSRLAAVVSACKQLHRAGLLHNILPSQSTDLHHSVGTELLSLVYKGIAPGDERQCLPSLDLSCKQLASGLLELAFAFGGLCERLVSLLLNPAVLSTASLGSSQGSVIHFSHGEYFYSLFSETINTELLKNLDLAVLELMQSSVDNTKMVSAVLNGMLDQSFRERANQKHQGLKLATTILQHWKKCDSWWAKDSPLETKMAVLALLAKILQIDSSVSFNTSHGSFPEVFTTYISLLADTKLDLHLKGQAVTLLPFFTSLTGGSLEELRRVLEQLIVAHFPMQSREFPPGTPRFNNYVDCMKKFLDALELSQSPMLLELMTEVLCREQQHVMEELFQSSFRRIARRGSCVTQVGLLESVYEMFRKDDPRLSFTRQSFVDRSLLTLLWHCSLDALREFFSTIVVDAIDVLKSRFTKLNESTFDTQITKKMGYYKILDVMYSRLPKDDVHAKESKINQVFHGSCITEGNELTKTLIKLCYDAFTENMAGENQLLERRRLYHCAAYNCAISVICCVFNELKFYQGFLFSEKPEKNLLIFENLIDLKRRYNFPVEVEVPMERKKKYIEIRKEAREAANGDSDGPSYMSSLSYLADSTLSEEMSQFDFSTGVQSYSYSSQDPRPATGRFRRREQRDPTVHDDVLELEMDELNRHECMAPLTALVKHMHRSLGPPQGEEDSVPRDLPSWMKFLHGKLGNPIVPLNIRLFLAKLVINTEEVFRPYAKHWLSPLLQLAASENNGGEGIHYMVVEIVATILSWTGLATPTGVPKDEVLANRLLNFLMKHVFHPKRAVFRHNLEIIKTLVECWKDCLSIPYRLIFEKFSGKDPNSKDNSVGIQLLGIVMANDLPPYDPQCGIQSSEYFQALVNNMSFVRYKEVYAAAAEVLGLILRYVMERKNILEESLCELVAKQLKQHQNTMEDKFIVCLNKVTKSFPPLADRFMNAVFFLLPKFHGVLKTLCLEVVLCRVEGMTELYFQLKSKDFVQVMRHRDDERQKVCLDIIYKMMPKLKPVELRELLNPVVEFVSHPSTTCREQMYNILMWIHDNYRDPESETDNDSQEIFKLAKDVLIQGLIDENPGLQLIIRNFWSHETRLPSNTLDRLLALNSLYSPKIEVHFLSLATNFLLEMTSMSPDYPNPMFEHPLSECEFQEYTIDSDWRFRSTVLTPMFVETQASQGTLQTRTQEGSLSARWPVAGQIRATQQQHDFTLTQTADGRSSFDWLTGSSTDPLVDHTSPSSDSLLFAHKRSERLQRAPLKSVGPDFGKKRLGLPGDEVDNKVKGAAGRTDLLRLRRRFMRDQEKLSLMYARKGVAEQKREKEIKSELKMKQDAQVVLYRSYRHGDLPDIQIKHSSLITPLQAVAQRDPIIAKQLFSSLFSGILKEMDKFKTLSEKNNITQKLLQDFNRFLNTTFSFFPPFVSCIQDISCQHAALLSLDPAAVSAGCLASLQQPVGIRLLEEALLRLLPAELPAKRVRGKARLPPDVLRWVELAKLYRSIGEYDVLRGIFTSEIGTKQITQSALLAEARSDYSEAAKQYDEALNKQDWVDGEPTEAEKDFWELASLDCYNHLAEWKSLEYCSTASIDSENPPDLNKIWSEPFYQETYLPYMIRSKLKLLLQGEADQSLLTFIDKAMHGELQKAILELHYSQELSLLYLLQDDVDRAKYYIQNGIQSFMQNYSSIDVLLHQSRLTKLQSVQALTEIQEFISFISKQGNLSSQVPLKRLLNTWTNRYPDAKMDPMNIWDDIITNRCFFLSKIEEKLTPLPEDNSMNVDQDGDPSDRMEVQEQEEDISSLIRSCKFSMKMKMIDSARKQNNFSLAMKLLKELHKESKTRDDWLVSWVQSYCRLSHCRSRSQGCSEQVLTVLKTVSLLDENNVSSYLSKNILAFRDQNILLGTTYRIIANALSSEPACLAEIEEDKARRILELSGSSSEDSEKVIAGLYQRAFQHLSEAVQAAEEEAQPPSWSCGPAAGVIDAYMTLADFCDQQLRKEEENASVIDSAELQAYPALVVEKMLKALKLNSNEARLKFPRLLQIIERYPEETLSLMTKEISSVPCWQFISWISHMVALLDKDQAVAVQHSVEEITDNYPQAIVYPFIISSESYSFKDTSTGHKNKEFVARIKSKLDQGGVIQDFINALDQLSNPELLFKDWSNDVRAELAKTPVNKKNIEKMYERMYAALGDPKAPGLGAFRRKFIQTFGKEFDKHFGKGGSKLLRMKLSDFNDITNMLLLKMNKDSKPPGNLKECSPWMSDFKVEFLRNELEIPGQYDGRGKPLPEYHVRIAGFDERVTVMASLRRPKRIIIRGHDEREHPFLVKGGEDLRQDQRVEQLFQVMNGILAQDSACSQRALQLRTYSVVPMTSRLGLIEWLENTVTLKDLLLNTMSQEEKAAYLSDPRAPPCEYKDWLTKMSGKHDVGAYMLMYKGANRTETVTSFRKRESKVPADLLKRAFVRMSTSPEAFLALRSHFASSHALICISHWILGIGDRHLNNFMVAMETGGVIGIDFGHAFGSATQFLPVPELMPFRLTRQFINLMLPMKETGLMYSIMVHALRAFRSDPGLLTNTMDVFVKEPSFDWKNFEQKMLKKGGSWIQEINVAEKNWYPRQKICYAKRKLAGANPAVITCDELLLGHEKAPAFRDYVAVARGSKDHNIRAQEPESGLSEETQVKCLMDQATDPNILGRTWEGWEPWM

Turning to `CCNC(=O)Nc1ccc(-c2nc3c(c(N4CCOC[C@@H]4CC)n2)CS(=O)(=O)C3C)cc1` (stereo partly drawn) [Example 41, 1-ethyl-3-(4-(4-((S)-3-ethylmorpholino)-7-methyl-6,6-dioxido-5,7-dihydrothieno[3,4-d]pyrimidin-2-yl)phenyl)urea], the IC50 in assay [1] is less than 100 nM; in assay [2] it was 251 nM; in assay [3], less than 100 nM; in assay [4] it was greater than 10000 nM.
On to `CCNC(=O)Nc1ccc(-c2nc(N3CCOC[C@H]3C)c3c(n2)C(C)(C)S(=O)(=O)C3)cc1` [Example 55, (R)-1-(4-(7,7-dimethyl-4-(3-methylmorpholino)-6,6-dioxido-5,7-dihydrothieno[3,4-d]pyrimidin-2-yl)phenyl)-3-ethylurea], for which the IC50 in assay [1] is less than 100 nM; in assay [2] it was 100 nM; in assay [4] it was greater than 10000 nM.
On to `CCNC(=O)Nc1ccc(-c2nc(N3CCOC[C@@H]3CC)c3c(n2)C(C)(C)S(=O)(=O)C3)cc1` [Example 56, (S)-1-ethyl-3-(4-(4-(3-ethylmorpholino)-7,7-dimethyl-6,6-dioxido-5,7-dihydrothieno[3,4-d]pyrimidin-2-yl)phenyl)urea], for which the IC50 in assay [2] is 316 nM; in assay [3], less than 100 nM; in assay [4] it was greater than 10000 nM.
In the same order, the values of `CNC(=O)Nc1ccc(-c2nc(N3CCOC[C@@H]3C)c3c(n2)C(C)(C)S(=O)(=O)C3)cc1` [Example 57, (S)-1-(4-(7,7-dimethyl-4-(3-methylmorpholino)-6,6-dioxido-5,7-dihydrothieno[3,4-d]pyrimidin-2-yl)phenyl)-3-methylurea] are 251 nM, less than 100 nM and greater than 10000 nM.
For `CCNC(=O)Nc1ccc(-c2nc(N3CCOCC3)c3c(n2)C(C)(C)S(=O)(=O)C3)cc1` [Example 76, 1-(4-(7,7-dimethyl-4-morpholino-6,6-dioxido-5,7-dihydrothieno[3,4-d]pyrimidin-2-yl)phenyl)-3-ethylurea], the values for the IC50 in assay [1], in assay [2] and in assay [3] were less than 100 nM, 631 nM and less than 100 nM, respectively.
Take `CNC(=O)Nc1ccc(-c2nc(N3CCOC[C@@H]3C)c3c(n2)C(C)(C)S(=O)(=O)C3C)cc1` (stereo partly drawn) [Example 77, 1-methyl-3-(4-(5,7,7-trimethyl-4-((S)-3-methylmorpholino)-6,6-dioxido-5,7-dihydrothieno[3,4-d]pyrimidin-2-yl)phenyl)urea]: the figures for the IC50 in assay [1], in assay [2] and in assay [3] were less than 100 nM, 200 nM and less than 100 nM, respectively.
As for `CNC(=O)Nc1ccc(-c2nc(N3CCOC[C@@H]3C)c3c(n2)C(C)(C)S(=O)(=O)C3C)c(F)c1` (stereo partly drawn) [Example 78, 1-(3-fluoro-4-(5,7,7-trimethyl-4-((S)-3-methylmorpholino)-6,6-dioxido-5,7-dihydrothieno[3,4-d]pyrimidin-2-yl)phenyl)-3-methylurea], the values for the IC50 in assay [1], in assay [2] and in assay [3] were less than 100 nM, 501 nM and less than 100 nM, respectively.
In the case of `CC[C@H]1COCCN1c1nc(-c2ccc(NC(=O)NC)cc2F)nc2c1C(C)S(=O)(=O)C2(C)C` (stereo partly drawn) [Example 79, 1-(4-(4-((S)-3-ethylmorpholino)-5,7,7-trimethyl-6,6-dioxido-5,7-dihydrothieno[3,4-d]pyrimidin-2-yl)-3-fluorophenyl)-3-methylurea], the IC50 in assay [1] was less than 100 nM; in assay [2], 631 nM; in assay [3], less than 100 nM.
On to `CC[C@H]1COCCN1c1nc(-c2ccc(NC(=O)NC)cc2)nc2c1C(C)S(=O)(=O)C2(C)C` (stereo partly drawn) [Example 80, 1-(4-(4-((S)-3-ethylmorpholino)-5,7,7-trimethyl-6,6-dioxido-5,7-dihydrothieno[3,4-d]pyrimidin-2-yl)phenyl)-3-methylurea], for which the IC50 in assay [1] is less than 100 nM; in assay [2], 100 nM; in assay [3], less than 100 nM.
